Read-outs that look alike come from different tables or passages of the source.
Tests used:
[1] = biological target: T1, p53(Y220C) (Homo sapiens, UniProt P04637, Y220C); experiment: In vitro DNA binding assay (HTRF), His-p53 Y220C (94-294) with biotinylated p53 consensus DNA; type: biochemical
T1 construct: His-p53 Y220C (94-294) protein
Procedure: After His-p53 Y220C (94-294) protein was placed with a compound in the present of MAb Anti His-Tb cryptate (Cisbio, Cat. NO. 61HI2TLA) in a 384 well microplate (Greiner) for 15 min at 25 °C, the assay plate was transferred into 27 °C incubator and incubated for 60 min. Biotinalyted p53 consensus DNA (ID: p53-SEQUENCE 2 —F: 5′(biotin)-[…] 3′ —R: 5′ […] 3′) was added into the assay plate in the present of Streptaidin-d2 (Cisbio, Cat. NO. 610SADLF) cryptate (Final concentration: 20 mM HEPES pH=7.4, 75 mM KCl, 1 mM MgCl2, 0.1% (w/v) BSA, 1 mM DTT, 2.5 nM His-P53 Y220C (94-294) protein, 0.33 nM MAb Anti His-Tb cryptate, 2.5 nM Streptaidin-d2 cryptate, 10 nM Biotinalyted DNA) and incubated for another 60 min. Wells containing 2 μM reference compound Ref-1a served as high control, and wells containing same percentage of DMSO served as low control. Homogeneous time-resolved fluorescence (HTRF) signals were read on Tecan Spark multimode microplate reader. HTRF ratios for each individual well were calculated by equation: HTRF ratio=(Signal F665/Signal F620)*1000. The percent of activation of compounds treated wells were normalized between high control and low control (% Activation=(HTRF ratiocompound treated−HTRF ratiolow control)/(HTRF ratiohigh control−HTRF ratiolow control)*100%). Then the data were analyzed either by fitting a 4-parameter logistic model or by Excel to calculate EC50 values. And the EC50 was the concentration at 50% Activation on the curve.

[2] = test system: NUGC-3 (P53 Y220C); experiment: Cell viability assay (CellTiter-Glo); type: cell-based; conditions: NUGC-3 cells, 6 days, 37 °C
Procedure: Cells were collected and counted. A desired number of cells was seeded into 96-well microplate and cultured in 37 °C cell incubator overnight. Compounds dissolved in cell culture medium were added into cell plate and cultured for 6 days. After balancing CellTiter-Glo reagent and cells at room temperature for 30 min, equal volume of CellTiter-Glo reagents was added to assay plate and shaken for 2 min for cell lysis. The cells were balanced at room temperature for 10 minutes and Luminescence signal was read using Envision. The percent of cell viability for compounds treated wells were normalized between High control and low control. Wells containing cell culture medium and same percentage DMSO served as Low control. Wells containing cells and same percentage DMSO served as High control. Cell viability (%)=(Luminescence readoutCompound treated−Luminescence readoutLow control)/(Luminescence readoutHigh control−Luminescence readoutLow control)*100%. Then the data were analyzed either by fitting a 4-parameter logistic model or by Excel to calculate IC50 values. And the IC50 was the concentration at […] Cell viability on the curve.

[3] = biological target: p53(Y220C)_NUGC-3 (Homo sapiens, UniProt P04637, Y220C); experiment: Reporter gene assay (NUGC-3_P53_Luc cells); type: cell-based
Procedure: NUGC-3_P53_Luc single clonal cell line was established using pGL4.38[luc2P/p53 RE/Hygro] Vector (E365A, promega). NUGC-3_P53_Luc single clonal cells were cultured in 37 °C cell incubator before use. NUGC-3_P53_Luc cells were collected and washed twice with PBS to remove phenol red and then resuspended in medium to a proper concentration. Tested compound dilutions were transferred into 384 well assay plates (PerkinElmer). A desired number of cells was seeded into the assay plate and cultured for 6 hours at 37 °C cell incubator. Britelite plus Luciferase Assay Reagent were added into each well and the luminescence value was recorded on Envision. The percent of activity value of compounds treated wells was normalized between high control and low control. Wells containing cells and Ref-la (10 μM) served as high control, and wells containing cells and same percentage of DMSO served as low control. Activity value (%)=(Luminescence readoutCompound treated−Luminescence readoutLow control)/(Luminescence readoutHigh control−Luminescence readoutLow control)*100%. Then the data were analyzed either by fitting a 4-parameter logistic model or by Excel to calculate EC50 values and the EC50 was the concentration at 50% Activity on the curve.

[4] = HTRF, 27 °C, His-p53 Y220C (94-294) 2.5 nM, biotinylated DNA 10 nM, normalized to 2 μM Ref-1a, EC50 = concentration at 50% Activation, read-out: p53(Y220C) EC50
[5] = 6 hours, 37 °C, luciferase, normalized to Ref-1a 10 μM, EC50 = concentration at 50% Activity, read-out: p53(Y220C)_NUGC-3 EC50

Row | Compound | EC50 [1, 4] [nM] | IC50 ([2]; Homo sapiens, 144 h) [nM] | EC50 [3, 5] [nM] | EC50 [1] [nM] | EC50 ([3]; read-out: p53(Y220C)_NUGC-3 EC50, 6 hours, 37 °C, luciferase, normalized to Ref-1a 10 μM, EC50 = concentration at 50% Activity) [nM] | IC50 [2] [nM]
1 | COc1cc(S(=N)(=O)C2CCOCC2)ccc1NCC#Cc1sc2c(NC3CCN(C)CC3F)cccc2c1CC(F)(F)F [Example 24, (S)-(4-((3-(7-(((3S,4R)-3-fluoro-1-methylpiperidin-4-yl)amino)-3-(2,2,2-trifluoroethyl)benzo[b]thiophen-2-yl)prop-2-yn-1-yl)amino)-3-methoxyphenyl)(imino)(tetrahydro-2H-pyran-4-yl)-16-sulfanone] | 68 | 900 | 119 |  |  | 
2 | COc1cc([S@](=N)(=O)C(C)C)ccc1NCC#Cc1sc2c(N[C@@H]3CCN(C)C[C@@H]3F)cccc2c1CC(F)(F)F [Example 26, (R)-(4-((3-(7-(((3S,4R)-3-fluoro-1-methylpiperidin-4-yl)amino)-3-(2,2,2-trifluoroethyl)benzo[b]thiophen-2-yl)prop-2-yn-1-yl)amino)-3-methoxyphenyl)(imino)(isopropyl)-16-sulfanone] | 70 | 1840 | 208 |  |  | 
3 | COc1cc(P(C)(C)=O)ccc1NCC#Cc1sc2c(N[C@@H]3CCCN(C)C3)cccc2c1CC(F)(F)F [Example 28, (R)-(3-methoxy-4-((3-(7-((1-methylpiperidin-3-yl)amino)-3-(2,2,2-trifluoroethyl)benzo[b]thiophen-2-yl)prop-2-yn-1-yl)amino)phenyl)dimethylphosphine oxide] | 77 | 1550 | 244 |  |  | 
4 | COc1cc(P(C)(C)=O)ccc1NCC#Cc1sc2c(N[C@@H]3CCN(C)C[C@@H]3F)cccc2c1[C@H](O)C(F)(F)F [Example 31, (4-((3-(7-(((3S,4R)-3-fluoro-1-methylpiperidin-4-yl)amino)-3-((S)-2,2,2-trifluoro-1-hydroxyethyl)benzo[b]thiophen-2-yl)prop-2-yn-1-yl)amino)-3-methoxyphenyl)dimethylphosphine oxide] | 29 | 870 | 126 |  |  | 
5 | COc1cc(P(C)(C)=O)ccc1NCC#Cc1sc2c(N[C@@H]3CCN(C)C[C@@H]3F)cccc2c1[C@@H](O)C(F)(F)F [Example 33, (4-((3-(7-(((3S,4R)-3-fluoro-1-methylpiperidin-4-yl)amino)-3-((R)-2,2,2-trifluoro-1-hydroxyethyl)benzo[b]thiophen-2-yl)prop-2-yn-1-yl)amino)-3-methoxyphenyl)dimethylphosphine oxide] | 55 | 1440 | 102 |  |  | 
6 | COc1cc(P(C)(C)=O)ccc1NCC#Cc1sc2c(N[C@H]3CCN(C)C[C@H]3F)cccc2c1[C@@H](O)C(F)(F)F [Example 34, (4-((3-(7-(((3R,4S)-3-fluoro-1-methylpiperidin-4-yl)amino)-3-((R)-2,2,2-trifluoro-1-hydroxyethyl)benzo[b]thiophen-2-yl)prop-2-yn-1-yl)amino)-3-methoxyphenyl)dimethylphosphine oxide] | 20 | 380 | 28 |  |  | 
7 | COc1cc(S(C)(=O)=O)ccc1NCC#Cc1sc2c(N[C@@H]3CCN(C)C[C@@H]3F)cccc2c1CC(F)(F)F [Example 36, (3S,4R)-3-fluoro-N-(2-(3-((2-methoxy-4-(methylsulfonyl)phenyl)amino)prop-1-yn-1-yl)-3-(2,2,2-trifluoroethyl)benzo[b]thiophen-7-yl)-1-methylpiperidin-4-amine] | 81 | 590 | 117 |  |  | 
8 | COc1c(NCC#Cc2sc3c(N[C@@H]4CCN(C)C[C@@H]4F)cccc3c2CC(F)(F)F)ccc(P(C)(C)=O)c1C [Example 41, (4-((3-(7-(((3S,4R)-3-fluoro-1-methylpiperidin-4-yl)amino)-3-(2,2,2-trifluoroethyl)benzo[b]thiophen-2-yl)prop-2-yn-1-yl)amino)-3-methoxy-2-methylphenyl)dimethylphosphine oxide] | 56 | 1230 | 137 |  |  | 
9 | COc1c(NCC#Cc2sc3c(N[C@@H]4CCN(C)C[C@@H]4F)cccc3c2CC(F)(F)F)ccc(P(C)(C)=O)c1C(F)(F)F [Example 42, (4-((3-(7-(((3S,4R)-3-fluoro-1-methylpiperidin-4-yl)amino)-3-(2,2,2-trifluoroethyl)benzo[b]thiophen-2-yl)prop-2-yn-1-yl)amino)-3-methoxy-2-(trifluoromethyl)phenyl)dimethylphosphine oxide] | 93 | 1890 | 252 |  |  | 
10 | CCOc1c(P(C)(C)=O)ccc(NCC#Cc2sc3c(N[C@@H]4CCN(C)C[C@@H]4F)cccc3c2CC(F)(F)F)c1OC [Example 43, (2-ethoxy-4-((3-(7-(((3S,4R)-3-fluoro-1-methylpiperidin-4-yl)amino)-3-(2,2,2-trifluoroethyl)benzo[b]thiophen-2-yl)prop-2-yn-1-yl)amino)-3-methoxyphenyl)dimethylphosphine oxide] | 56 | 590 | 160 |  |  | 
11 | COc1nc([S@](C)(=N)=O)ccc1NCC#Cc1sc2c(N[C@@H]3CCN(C)C[C@@H]3F)cccc2c1CC(F)(F)F [Example 44, (R)-(5-((3-(7-(((3S,4R)-3-fluoro-1-methylpiperidin-4-yl)amino)-3-(2,2,2-trifluoroethyl)benzo[b]thiophen-2-yl)prop-2-yn-1-yl)amino)-6-methoxypyridin-2-yl)(imino)(methyl)-16-sulfanone] | 46 | 1350 | 84 |  |  | 
12 | COc1nc([S@@](C)(=N)=O)ccc1NCC#Cc1sc2c(N[C@@H]3CCN(C)C[C@@H]3F)cccc2c1CC(F)(F)F [Example 45, (S)-(5-((3-(7-(((3S,4R)-3-fluoro-1-methylpiperidin-4-yl)amino)-3-(2,2,2-trifluoroethyl)benzo[b]thiophen-2-yl)prop-2-yn-1-yl)amino)-6-methoxypyridin-2-yl)(imino)(methyl)-16-sulfanone] | 65 | 1330 | 95 |  |  | 
13 | COc1cc(P(C)(C)=O)ccc1NCC#Cc1sc2c(N[C@@H]3CN4CCC3CC4)cccc2c1CC(F)(F)F [Example 48, (S)-(3-methoxy-4-((3-(7-(quinuclidin-3-ylamino)-3-(2,2,2-trifluoroethyl)benzo[b]thiophen-2-yl)prop-2-yn-1-yl)amino)phenyl)dimethylphosphine oxide] |  | 1600 |  | 65 | 439 | 
14 | COc1cc([S@](=N)(=O)C2COC2)ccc1NCC#Cc1sc2c(N[C@@H]3CCN(C)C[C@@H]3F)cccc2c1CC(F)(F)F [Example 49, (R)-(4-((3-(7-(((3S,4R)-3-fluoro-1-methylpiperidin-4-yl)amino)-3-(2,2,2-trifluoroethyl)benzo[b]thiophen-2-yl)prop-2-yn-1-yl)amino)-3-methoxyphenyl)(imino)(oxetan-3-yl)-16-sulfanone] | 51 |  | 64 |  |  | 750

Reference: US20260374794A1, “COMPOUNDS TARGETING MUTANT OF P53” (JACOBIO PHARMACEUTICALS CO., LTD., priority 2022, published 2026)
